Consider 2 molecules from US20230241243A1, “CARRIER PARTICLE-DRUG CONJUGATES, SELF-IMMOLATIVE LINKERS, AND USES THEREOF” (priority 2020, published 2023).

Data set [1] relates to KB cell line. Particulars: read-out: IC50 in KB cell line (++++); FA ligands per particle 12-22; linker-drug conjugates per particle 17-25. The protocol: (§1) The in vitro cytotoxicity of the NDCs disclosed herein were tested in cancer cells. The cancer cells were cultured in folic acid-free medium (RPMI1640, ThermoFisher, GIBCO) for at least one week before the study. Cells were plated in opaque 96-well plates at a density of 3×10^3 cells per well (total of […]) and allowed to attach overnight. The following day, cells were treated with NDC (FA-CDC) prepared using the linker-payload conjugate precursor compound 202 (Example 33), at a concentration range of 0-50 nM (0, 0.001, 0.005, 0.01, 0.05, 0.1, 0.5, 1, 5, 10, 50 nM) by adding […] of 10x stock FA-CDC Solution.
(§2) Cells were treated for a pre-defined exposure time (depending on the study design, e.g., 4-6 hours, or 7 days). In the case of short-exposure-time viability study, cancer cells in each wells were washed with […] PBS and refreshed with […] of cell medium. After washing, the plates were returned back to 37° C. incubator for 7 days before the viability assay. In the case of 7-day-exposure-time viability study, no additional washing step was performed. After 7 days, the cell viability was assessed using the CellTiter-Glo2.0 assay (Promega) according to manufacturer's instructions. Data for both viability and proliferation were plotted using Prism7 software (GraphPad).

For data set [2], the system named is SKOV-3 cell line. Put plainly: In vitro cell viability assay of FA-CDCs (CellTiter-Glo2.0). As to conditions: FA ligands per particle 12-22; linker-drug conjugates per particle 17-25; read-out: IC50 inSKOV-3 cell line (+++). The data set is classed as cell-based. As for the experimental part:
as §1
as §2, with “(GraphPad). Representative cell viability results of six FA-CDCs with similar surface density of Folic Acid targeting ligands and drug linkers is presented in provided in Table 4.” for “(GraphPad).”
(In ATP-based viability assays light output follows the ATP content of the culture.)

Data set [3] in a line: Drug-release assay of nanoparticle-conjugated linker-payloads under cleavage conditions (Cat-B, redox-responsive or pH-sensitive cleaving study), RP-HPLC. It is filed as in vitro ADME. As to conditions: linker-payload conjugated to DBCO-functionalized silica nanoparticle, 37° C., 24 hours. The gist of the method: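 Azide linker-drugs were click-conjugated to DBCO-functionalized ultrasmall silica nanoparticles and incubated under cleavage conditions, e.g., Cat-B in 25 mM MES, 5 mM DTT, pH 5.0. Released versus non-released drug was quantified by C18 RP-HPLC peak area. Gradients were 0.01% TFA water/acetonitrile for protease/redox linkers and water/acetonitrile for pH-sensitive linkers.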

The IC50 is the point on the concentration scale where inhibition reaches its midpoint. As for `CC[C@@]1(O)C(=O)OCc2c1cc1n(c2=O)Cc2c-1nc1cc(F)c(C)c3c1c2[C@@H](NC(=O)OCCSSCCNC(=O)CCOCCOCCOCCOCCOCCOCCOCCOCCOCCN=[N+]=[N-])CC3` [Example 57, 37-azido-8-oxo-11,14,17,20,23,26,29,32,35-nonaoxa-3,4-dithia-7-azaheptatriacontyl ((1S,9S)-9-ethyl-5-fluoro-9-hydroxy-4-methyl-10,13-dioxo-2,3,9,10,13,15-hexahydro-1H,12H-benzo[de]pyrano[3′,4′:6,7]indolizino[1,2-b]quinolin-1-yl)carbamate], the results for the IC50 in data set [1] and in data set [2] were 0.6 nM and 0.9 nM, respectively. Also, the “% of Payload Release in 24 Hours Under Cleavage Conditions” value in data set [3] is “+++ (‘+++’ indicates 51-75% release)”.
In the same order, the values of `CC[C@@]1(O)C(=O)OCc2c1cc1n(c2=O)Cc2c-1nc1cc(F)c(C)c3c1c2[C@@H](NC(=O)OCc1ccc(NC(=O)[C@H](CCCCN)NC(=O)[C@@H](NC(=O)CCOCCOCCOCCOCCOCCOCCOCCOCCOCCN=[N+]=[N-])C(C)C)cc1)CC3` [Example 33, 4-((32S,35S)-35-(4-aminobutyl)-1-azido-32-isopropyl-30,33-dioxo-3,6,9,12,15,18,21,24,27-nonaoxa-31,34-diazahexatriacontan-36-amido)benzyl ((1S,9S)-9-ethyl-5-fluoro-9-hydroxy-4-methyl-10,13-dioxo-2,3,9,10,13,15-hexahydro-1H,12H-benzo[de]pyrano[3′,4′:6,7]indolizino[1,2-b]quinolin-1-yl)carbamate] are 0.3 nM, 0.13 nM and “++++ (‘++++’ indicates 76-100% release)”.
